Active and inactive are the calls of the source. No cut-off for these calls is given here.
How the values were obtained:
[1] = test system: MDA-MB-468; assay: Cytotoxicity against human MDA-MB-468 cells assessed as inhibition of cell viability at 10 uM; assay type: functional
[2] = biological target: Signal transducer and activator of transcription 3 (Homo sapiens) (UniProt P40763); assay: Inhibition of IL-6-induced STAT3 pathway in human HepG2 cells at 10 uM by luciferase reporter gene assay; assay type: cell-based
Sequence of Signal transducer and activator of transcription 3 (Homo sapiens) (P40763 whole entry): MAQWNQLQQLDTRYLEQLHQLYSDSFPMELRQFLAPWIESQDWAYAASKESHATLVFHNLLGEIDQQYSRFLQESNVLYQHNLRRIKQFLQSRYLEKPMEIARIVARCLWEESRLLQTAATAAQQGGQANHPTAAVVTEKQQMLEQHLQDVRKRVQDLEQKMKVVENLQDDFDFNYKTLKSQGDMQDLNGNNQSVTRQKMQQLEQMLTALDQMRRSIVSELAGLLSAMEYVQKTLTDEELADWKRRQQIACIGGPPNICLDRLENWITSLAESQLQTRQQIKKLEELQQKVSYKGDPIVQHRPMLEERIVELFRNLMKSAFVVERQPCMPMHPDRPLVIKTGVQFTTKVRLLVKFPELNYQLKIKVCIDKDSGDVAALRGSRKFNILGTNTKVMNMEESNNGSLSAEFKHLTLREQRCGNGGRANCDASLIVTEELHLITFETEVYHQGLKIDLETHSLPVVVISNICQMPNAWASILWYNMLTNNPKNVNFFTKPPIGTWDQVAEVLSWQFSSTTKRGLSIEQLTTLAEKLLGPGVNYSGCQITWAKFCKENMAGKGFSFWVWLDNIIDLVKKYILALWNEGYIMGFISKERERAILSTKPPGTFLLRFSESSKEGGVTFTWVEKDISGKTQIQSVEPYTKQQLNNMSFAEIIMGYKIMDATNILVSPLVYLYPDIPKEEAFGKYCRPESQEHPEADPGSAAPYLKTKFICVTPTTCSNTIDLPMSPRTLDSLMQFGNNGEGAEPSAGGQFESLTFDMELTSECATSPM

[3] = test system: HepG2; assay: Effect on JAK2 protein level in human HepG2 cells pretreated at 50 uM for 48 hrs prior to IL-6 stimulation by Western blot analysis; assay type: functional, cell-based
[4] = test system: HepG2; assay: Effect on SRC protein level in human HepG2 cells pretreated at 50 uM for 48 hrs prior to IL-6 stimulation by Western blot analysis; assay type: functional, cell-based
[5] = biological target: Proto-oncogene tyrosine-protein kinase Src (Homo sapiens) (UniProt P12931); assay: Effect on SRC in human HepG2 cells pretreated at 50 uM for 6 to 48 hrs prior to IL-6 stimulation by Western blot analysis; assay type: cell-based
Sequence of Proto-oncogene tyrosine-protein kinase Src (Homo sapiens) (P12931 2-536 limits assumed): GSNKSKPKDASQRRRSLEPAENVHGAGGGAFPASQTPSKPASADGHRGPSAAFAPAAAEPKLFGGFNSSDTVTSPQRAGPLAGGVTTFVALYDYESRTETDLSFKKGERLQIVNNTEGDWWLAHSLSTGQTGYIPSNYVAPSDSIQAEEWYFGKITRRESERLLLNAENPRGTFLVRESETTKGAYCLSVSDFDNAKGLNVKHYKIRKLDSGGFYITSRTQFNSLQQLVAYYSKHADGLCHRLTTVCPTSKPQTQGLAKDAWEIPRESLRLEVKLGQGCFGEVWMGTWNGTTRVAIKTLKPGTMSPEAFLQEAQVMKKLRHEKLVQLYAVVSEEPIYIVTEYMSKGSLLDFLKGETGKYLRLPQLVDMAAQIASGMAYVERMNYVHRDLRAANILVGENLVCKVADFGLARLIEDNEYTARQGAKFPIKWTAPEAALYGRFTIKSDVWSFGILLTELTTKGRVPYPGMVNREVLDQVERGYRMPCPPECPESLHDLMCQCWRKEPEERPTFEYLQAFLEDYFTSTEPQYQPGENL

[6] = biological target: Tyrosine-protein kinase JAK2 (Homo sapiens) (UniProt O60674); assay: Effect on JAK2 in human HepG2 cells pretreated at 50 uM for 48 hrs prior to IL-6 stimulation by Western blot analysis; assay type: cell-based
Sequence of Tyrosine-protein kinase JAK2 (Homo sapiens) (O60674 whole entry): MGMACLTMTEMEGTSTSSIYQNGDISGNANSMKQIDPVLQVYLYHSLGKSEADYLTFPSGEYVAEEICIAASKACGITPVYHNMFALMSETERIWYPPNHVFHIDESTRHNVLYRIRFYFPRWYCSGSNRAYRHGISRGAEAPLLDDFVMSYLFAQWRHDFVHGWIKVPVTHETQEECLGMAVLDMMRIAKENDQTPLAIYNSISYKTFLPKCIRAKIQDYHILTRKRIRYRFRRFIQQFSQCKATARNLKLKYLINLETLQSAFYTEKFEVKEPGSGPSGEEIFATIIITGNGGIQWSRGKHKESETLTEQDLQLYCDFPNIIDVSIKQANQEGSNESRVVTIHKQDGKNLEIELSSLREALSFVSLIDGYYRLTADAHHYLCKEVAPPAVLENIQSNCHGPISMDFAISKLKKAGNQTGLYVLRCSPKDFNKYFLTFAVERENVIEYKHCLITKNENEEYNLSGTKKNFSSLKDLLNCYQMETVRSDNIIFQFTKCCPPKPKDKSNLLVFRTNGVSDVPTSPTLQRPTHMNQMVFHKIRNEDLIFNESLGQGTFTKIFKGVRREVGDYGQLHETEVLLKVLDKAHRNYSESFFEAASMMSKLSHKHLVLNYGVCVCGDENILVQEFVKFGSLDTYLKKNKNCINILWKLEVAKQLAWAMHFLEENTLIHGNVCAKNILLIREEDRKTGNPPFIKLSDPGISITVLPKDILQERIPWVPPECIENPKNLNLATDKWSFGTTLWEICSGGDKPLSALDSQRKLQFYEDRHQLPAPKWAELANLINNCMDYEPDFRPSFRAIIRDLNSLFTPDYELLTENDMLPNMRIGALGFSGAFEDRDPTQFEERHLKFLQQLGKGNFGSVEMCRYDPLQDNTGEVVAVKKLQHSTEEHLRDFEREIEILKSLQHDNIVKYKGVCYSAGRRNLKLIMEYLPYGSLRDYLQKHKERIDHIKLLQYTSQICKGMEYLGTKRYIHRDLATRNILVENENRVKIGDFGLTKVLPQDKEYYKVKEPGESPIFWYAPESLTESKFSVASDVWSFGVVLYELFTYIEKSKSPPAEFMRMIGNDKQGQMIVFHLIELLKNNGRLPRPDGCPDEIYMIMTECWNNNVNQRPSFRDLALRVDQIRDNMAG

[7] = test system: HepG2; assay: Effect on total STAT3 protein level in human HepG2 cells pretreated for 6 hrs prior to IL-6 stimulation by Western blot analysis; assay type: functional, cell-based
[8] = biological target: Signal transducer and activator of transcription 3 (Homo sapiens) (UniProt P40763); assay: Inhibition of IL-6-induced STAT3 phosphorylation at Tyr705 residue in human HepG2 cells pretreated at 50 uM for 6 to 48 hrs prior to IL-6 stimulation by Western blot analysis; assay type: cell-based
[9] = test system: MDA-MB-468; assay: Cytotoxicity against human MDA-MB-468 cells assessed as inhibition of cell viability; assay type: functional, cell-based
[10] = biological target: Signal transducer and activator of transcription 3 (Homo sapiens) (UniProt P40763); assay: Inhibition of IL-6-induced STAT3 phosphorylation at Tyr705 residue in human HepG2 cells pretreated for 6 to 48 hrs prior to IL-6 stimulation by Western blot analysis; assay type: cell-based
[11] = biological target: T1, Signal transducer and activator of transcription 1-alpha/beta (Homo sapiens) (UniProt P42224); assay: Inhibition of IFN-gamma-induced STAT1 (unknown origin) at 10 uM
T1 sequence (whole entry): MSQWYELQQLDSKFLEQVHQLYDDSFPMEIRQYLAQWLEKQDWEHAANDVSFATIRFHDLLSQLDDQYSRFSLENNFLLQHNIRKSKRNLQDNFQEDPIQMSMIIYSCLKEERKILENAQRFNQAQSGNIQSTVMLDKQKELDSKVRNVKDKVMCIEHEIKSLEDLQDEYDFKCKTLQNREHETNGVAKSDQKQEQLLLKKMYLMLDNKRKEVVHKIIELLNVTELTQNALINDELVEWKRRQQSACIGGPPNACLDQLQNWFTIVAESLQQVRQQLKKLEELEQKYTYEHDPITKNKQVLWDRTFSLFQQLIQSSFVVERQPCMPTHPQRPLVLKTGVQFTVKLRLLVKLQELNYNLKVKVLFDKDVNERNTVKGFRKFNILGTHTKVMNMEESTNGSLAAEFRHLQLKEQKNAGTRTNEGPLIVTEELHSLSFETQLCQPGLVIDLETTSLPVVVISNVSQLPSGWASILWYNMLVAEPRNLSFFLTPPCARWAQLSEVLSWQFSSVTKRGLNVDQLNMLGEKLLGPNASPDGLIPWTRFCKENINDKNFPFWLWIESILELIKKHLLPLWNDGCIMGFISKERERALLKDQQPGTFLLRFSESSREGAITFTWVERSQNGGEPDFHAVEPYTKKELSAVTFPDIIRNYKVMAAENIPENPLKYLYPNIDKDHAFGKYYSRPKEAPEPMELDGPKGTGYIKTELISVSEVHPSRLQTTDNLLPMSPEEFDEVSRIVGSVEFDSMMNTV

Structure (SMILES)	inhibition [2] [%]	inhibition at 10 µM [1] [%]	further results
C#CCOc1ccc(Cl)cc1CNc1ccccc1Cl		15.5	
O=C(O)c1ccc(CNCc2ccccc2OCc2ccccc2)cc1	-8.72	-10.8	
COc1cc(/C=C/C(=O)CC(=O)/C=C/c2ccc(O)c(OC)c2)ccc1O [CURCUMIN]	41	3.88	inhibition [10]: Dose-dependent effect
Clc1ccc(COc2ccccc2CNCc2ccccn2)cc1	15.6	18.9	
CC(O)CNCc1c(OCc2ccccc2Cl)ccc2ccccc12 (stereo not drawn)		14.9	
Fc1ccc(COc2ccc(Cl)cc2CNCC2CCCO2)cc1 (stereo not drawn)	27.8	27.5	
NC(=O)COc1ccc(Cl)cc1CNCCc1ccccc1	14.3	-8.1	
Fc1ccc(COc2ccc(Cl)cc2CNCC2CCNCC2)cc1		38.8	
NC(=O)COc1ccc(Cl)cc1CNCc1ccc(F)cc1	1.69	54.8	

The next lines start with results.

inhibition [2] [%]	Structure (SMILES)	inhibition at 10 µM [1] [%]	further results
20.2	COCCNCc1ccc(OCc2cc(Cl)cc(Cl)c2)cc1	16.4	
42.1	NS(=O)(=O)c1ccc(NCc2cc(Cl)ccc2OCc2ccccc2)cc1	27.7	Activity [3]: inactive; Activity [4]: inactive; Activity [5]: inactive; Activity [6]: inactive; Activity [7]: inactive; inhibition [8]: Active; IC50 [9]: 28.3 µM
36.6	Clc1ccc(OCc2ccccc2Cl)c(CNCc2ccccc2)c1	10.7	
-6.39	COc1ccc(Cl)cc1CNCc1ccc2c(c1)OCO2	-4.03	
33.2	OCCNCc1cc(Br)ccc1OCc1ccc(Cl)cc1	26.6	IC50 [9]: 23 µM
3.63	NC(=O)COc1ccc(Cl)cc1CNCCN1CCOCC1	-2.61	
34.5	Cc1cccc(NCc2cc(Br)ccc2OCc2ccc(Cl)cc2)c1C	-2.03	
44.9	Oc1ccc(NCc2cc(Cl)ccc2OCc2ccc(Cl)cc2)cc1	46.8	Activity [3]: inactive; Activity [4]: inactive; Activity [5]: inactive; Activity [6]: inactive; Activity [7]: inactive; inhibition [8]: Active; IC50 [9]: 18.8 µM; inhibition [11]: 14.3%
